In a melting point compilation (Tetko et al.; mined from patent text by program, amines drawn as free bases though some values may be those of a salt):

SMILES | melting point [°C]
O=C(Nc1ccc(Br)c2ccccc12)c1cc(F)cc(N2CCOCC2)c1 | 187 to 189
CC1(C)CC(S(=O)C(F)c2c(F)cccc2F)=NO1 (stereo not given) | 87
CCOC(=O)c1cccc(N)c1NCc1ccc(-c2ccccc2C#N)cc1 | 104 to 105
COc1ccccc1N1CCN(CC(O)CCN2C(=O)c3ccccc3C2=O)CC1 (stereo not given) | 192 to 194
CCc1nnc2c(N(CC)CC)nc3ccccc3n12 | 98 to 100
Cc1[nH]c(=S)n(Nc2ccccc2)c1C | 217 to 219
CC1(C(O)CBr)COc2cc(Cl)ccc2O1 (stereo not given) | 133 to 135
COc1nc(N)nc2c1ncn2C1OC(CO)C(OC(=O)c2ccccc2)C1O (stereo not given) | 155 to 157
CNc1ncnc(NCc2c(F)cccc2Cl)c1N | 210 to 213
Cc1ccc(C2c3c(C)c(N4CCN(C)CC4)c(C)c(C)c3OC2(C)C)cc1 (stereo not given) | 188 to 190
CCOC(=O)Cc1ccc(Cc2nc3n(-c4c(Cl)cccc4Cl)[nH]c(C(C)C)c-3c(=O)n2)cc1 | 168 to 169
CCCc1nc(N)nc(N)c1N1CCNCC1 | 175 to 176
CCCCCCCCCCCC(=O)OC1C(C)C(c2ccccc2)NC(c2ccccc2)C1C (stereo not given) | 74 to 76
COC(=O)CC(C#N)c1cccc2ccc(OC)cc12 (stereo not given) | 113 to 114
Cn1cncc1-c1cnc(-c2ccccc2)nc1 | 144
CN1CCN(c2ccc(N/C=C3\CN=Cc4ccccc43)cc2)CC1 | 245 to 246
NNc1ccc(S(=O)(=O)c2ccc(NN)cc2)cc1 | 179 to 183
Cn1nc(-c2nc(C#CCO)c(Cl)cc2F)c(Cl)c1OC(F)F | 92 to 94
BrCc1noc2ccccc12 | 60 to 62
N#Cc1cc(-c2ccc(F)cc2)ccn1 | 194 to 195

SMILES | melting point [°C]
CCCOc1ccc(C=CC(=O)N2CCN(C)CC2)cc1-c1nc2c(C)cccc2c(=O)[nH]1 | 184 to 185
O=C(O)COc1ccc(C(=O)c2cccc(Cl)c2)c(Cl)c1Cl | 155 to 156
CCOC1=CC(C)=C(C(=O)OC)C(C)(C)C1 | 67 to 69
CN1CCC(O)(c2cc(F)c(Br)cc2F)CC1 | 133 to 135
O=C(Nc1nccs1)c1nc(-c2ccc(N3CCC(N4CCOCC4)CC3)cc2)[nH]c1-c1ccc(Cl)cc1 | 165 to 170
CCS(=O)(=O)c1cc(S(N)(=O)=O)sc1S(=O)(=O)CC | 176 to 177
CSc1ccccc1C(=O)Nc1ccc(C(=O)N2Cc3ccccc3Cc3ccccc32)cc1 | 222 to 225
CC(C)(CCCCCC(O)CCCCCC(C)(C)CC(=O)c1cccnc1)COC(=O)c1cccnc1 (stereo not given) | 65 to 67
O=S(=O)(C1CC1)C(F)(F)C(O)(Cn1cncn1)c1ccc(F)cc1 (single isomer, unassigned; (+)) | 144 to 145
Nc1nccc(Oc2ccc3c(C(=O)Nc4ccc(F)c(C(F)(F)F)c4)cccc3c2)n1 | 205
Cc1ccc(Oc2ccc(Br)cc2O)c(O)c1 | 95 to 97
COc1ccc2cc([C@H](C)C(=O)OCC(=O)N3CCC(CO[N+](=O)[O-])CC3)ccc2c1 | 94 to 95
COC(C)c1ccc(C=C(C)c2ccc3c(c2)C(C)(C)CCC3(C)C)cc1 (stereo not given) | 88 to 89
CCCCC1(N(C)C)CCC(c2[nH]c3ccc(C(F)(F)F)cc3c2C)CC1 (stereo not given) | 141 to 146
CC(C)N1CCC(Nc2cccnc2)CC1 | 101
CN(Cc1cccc2c1C(=O)N(C1CCC(=O)NC1=O)C2=O)C(=O)Nc1ccc(Cl)cc1 (stereo not given) | 279 to 281
CO[C@@H](C(=O)N[C@H]1CC[C@@H](OC(=O)C2CCCC2)CNC1=O)[C@H](O)[C@@H](O)[C@H](O)/C=C/C(C)(C)C | 75 to 76
CCOC(=O)C(=O)/C=C/c1ccc(OCc2nc(-c3ccccc3)oc2C)cc1 | 110 to 111
CCC1(COCc2ccccc2Cl)CCC(C)(C(N)=S)O1 (stereo not given) | 78 to 80
CCOC(=O)Cc1nc(-c2ccc(Cl)c(Cl)c2)oc1-c1ccoc1 | 130 to 131
